Laboratory results: US20080293048A1, “METHODS AND KITS BASED ON UGT1A7 PROMOTER POLYMORPHISM” (priority 2004, published 2008)

Key:
[1] = test system: patients with metastatic colorectal cancer; conditions: human, in vivo
Description: The aim of this study was to assess adverse events, dose reductions and clinical outcome. In both treatment arms 80 mg/m^2 of CPT-11 were administered intravenously over 30 minutes on day 1, 8, 15, 22, 29 and 36 and the cycle repeated after day 50. In arm A of the FIRE study FA (500 mg/m^2, 120 min. infusion) and 5-FU (2000 mg/m^2, 24 h infusion) were co-administered on days 1, 8, 15, 22, 29, 36, and in arm B oxaliplatin (85 mg/m^2, 120 min infusion) were co-administered on day 1, 15 and 29. At the beginning of each treatment cycle adverse events and clinical symptoms were documented. Patients with known Gilbert's disease were excluded from this study. The following adverse events were analyzed: diarrhea within 24 h and later than 24 after administration of CPT-11, loss of body weight more than 5%, anemia, thrombocytopenia, and leukopenia. The intensity of adverse events was classified according to the WHO-Adverse Reaction Terminology with scores from “0”—“no adverse events” to 4—“life-threatening adverse events”. If the CPT-11 dose had to be reduced to less than 80%, dose reduction was documented at each cycle. Genomic DNA from full blood of all patients was isolated as described before and genotyped after written informed consent was obtained. The study was approved by the local ethics committees.
All genotyping studies were performed in a blinded fashion without prior knowledge of the clinical data of the analyzed patient. Approximately 10 ng of genomic DNA were used as a template in Taqman 5′-nuclease assays. Primers and probes specific for each SNP were designed with Primer Express Software (Applied Biosystems) and labelled with either 6-FAM or VIC as reporter dyes and MGB-NFQ (Applied Biosystems) as a quencher as described in Lankisch et al., Mol. Pharmacol, 2005, 67(5); 1732-1739. The Taqman assays were performed using 600 nM primer concentrations and 200 nM probe concentrations (Applied Biosystems) and qPCR Mastermix Plus (Eurogentec, Seraing, Belgium). The run consisted of a hot start at 95° C. for 10 minutes and 35 cycles of 94° C. for 15 sec. and 61° C. for 1 min. All assays were performed in 25 μl reactions in 96-well trays using an ABI 7000 instrument (Applied Biosystems). UGT1A1*28 was determined by Oncoscreen, Jena, Germany.
Patients were classified according to the number of SNPs determined at the UGT1A1*28, UGT1A7 −57 T/G and UGT1A7 N129K/R131K gene loci. In the absence of allelic variants patients were classified as “low risk”, whereas high risk patients were defined if at least one allele of the allelic variant of each analyzed gene locus was present. If only one or two allelic variants were detected at the UGT1A1 or UGT1A7 gene locus, patients were classified as “intermediate risk”. […] Frequency and intensity of the adverse events were compared between the risk groups defined above by Cochran-Mantel-Haenszel statistics using modified ridit scores. The risk groups were also compared by multivariant analysis (non-parametric Weil-Lachin procedure) for differences in intensity of 5 adverse events simultaneously. […] This test leads to values between 0 and 1 with 0.5 characterizing equal chances, which would indicate no difference in the comparison of these patients. The analysis of incidence and intensity of adverse events was based on the documented 297 treatment cycles involving all 105 patients. The Chi-Square test was used for statistical analysis of CPT-11 dose reductions. P-values were not adjusted for multiple testing. All statistical analyses were calculated by an independent statistician who was not involved in patient treatment or genotyping (Estimate GmbH, Augsburg, Germany).

[2] = background statement; cited from earlier work
UGT1A7 = biological target: T1, UGT1A7 (Homo sapiens, UniProt Q9HAW7); conditions: stated as known; cited from earlier work
T1 construct: expressed in transfected cells; host or cells: HEK293
T1 sequence (Q9HAW7 26-530): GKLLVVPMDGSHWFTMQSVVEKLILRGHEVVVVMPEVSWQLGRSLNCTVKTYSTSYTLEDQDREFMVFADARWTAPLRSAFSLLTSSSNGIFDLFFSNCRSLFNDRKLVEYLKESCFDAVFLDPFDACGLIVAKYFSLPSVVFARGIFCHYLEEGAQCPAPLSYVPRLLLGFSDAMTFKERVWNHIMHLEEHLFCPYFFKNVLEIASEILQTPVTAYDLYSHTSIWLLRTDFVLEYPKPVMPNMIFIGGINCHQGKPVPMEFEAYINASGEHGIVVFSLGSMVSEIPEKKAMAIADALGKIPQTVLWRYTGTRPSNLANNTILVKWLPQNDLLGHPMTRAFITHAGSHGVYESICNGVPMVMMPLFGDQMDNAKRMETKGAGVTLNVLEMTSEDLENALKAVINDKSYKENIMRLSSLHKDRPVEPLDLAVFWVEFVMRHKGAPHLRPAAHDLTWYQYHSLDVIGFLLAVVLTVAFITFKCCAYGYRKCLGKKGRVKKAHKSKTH

Leukopenia WHO Grade 1, % [1] [%] | Leukopenia WHO Grade 1, n treatment cycles [1] | Thrombocytopenia WHO Grade 2, % [1] [%] | Thrombocytopenia WHO Grade 2, n treatment cycles [1] | Thrombocytopenia WHO Grade 3, % [1] [%] | Thrombocytopenia WHO Grade 3, n treatment cycles [1] | diarrhea <24 h WHO Grade 3, % of treatment cycles [1] | diarrhea <24 h WHO Grade 3, N treatment cycles [1] | leukopenia WHO Grade 4, % of treatment cycles [1] [%] | leukopenia WHO Grade 4, N treatment cycles [1] | thrombocytopenia WHO Grade 2, % of treatment cycles [1] [%] | thrombocytopenia WHO Grade 2, N treatment cycles [1] | thrombocytopenia WHO Grade 3, % of treatment cycles [1] | thrombocytopenia WHO Grade 3, N treatment cycles [1] | Leukopenia WHO Grade 4, % ([1]; 50 days (one treatment cycle)) [%] | Leukopenia WHO Grade 4, n treatment cycles ([1]; 50 days (one treatment cycle)) | SMILES | overall incidence of adverse events, Mann Whitney test ([1]; 50 days) | activity higher than irinotecan [2] | specific activity of UGT1A7 with SN-38 compared with UGT1A1 (UGT1A7)
21 | 10 | 3 | 5 | 1 | 1 | 1 (1%) | 1 (1%) | 1 | 2 | 3 | 5 | 1 (1%) | 1 (1%) | 1 | 2 | CCc1c2c(nc3ccc(OC(=O)N4CCC(N5CCCCC5)CC4)cc13)-c1cc3c(c(=O)n1C2)COC(=O)[C@]3(O)CC [irinotecan] | 0.5511 | – | –
– | – | – | – | – | – | – | – | – | – | – | – | – | – | – | – | CCc1c2c(nc3ccc(O)cc13)-c1cc3c(c(=O)n1C2)COC(=O)[C@]3(O)CC [SN-38, 7-ethyl-10-hydroxycamptothecin] | – | 100-1000 fold | five-hold higher
